{"source": "paper PMC2693498", "about": "(Retrovirology, 2009)", "key": {"HIV-1 strain xxLAI": {"tested_on": "HIV-1 strain xxLAI", "test": "microbe, parasite or virus in culture", "assay_type": "cell-based", "conditions": "Human immunodeficiency virus 1, MT2", "method": "The infected cells were incubated for 5 days at 37°C in 5% CO2. Antiviral activity was measured by determining the HIV-1 cytopathic effect by using the vital dye XTT (2,3-bis(2-methoxy-4-nitro-5-sulphophenyl)-2H-tetrazolium-5-carboxanilide) based colorimetric assay [61].\nFor the median-effect analysis, the compounds were combined at a 1:1 ratio based on their EC50. Six to eight concentrations of each single drug, two-drug combinations, and three-drug combinations were assayed in at least three independent experiments with quadruplicate wells for each experiment. The triple drug combination of TFV+FTC+EFV was studied by the median-effect analysis only. […] For the MacSynergy analysis, combinations of TFV+FTC, TFV+EFV, and FTC+EFV were tested in a checkerboard fashion in 96-well plates with the starting concentration for each compound fixed at three-fold to four-fold above the EC50 value. For the isobologram analysis, combinations of TFV+FTC, TFV+EFV, and FTC+EFV were tested in a checkerboard fashion with the starting concentration for each compound fixed at three-fold to four-fold above the EC50 value.\nThe degrees of synergy and antagonism were determined using CalcuSyn software (version 2.0, Biosoft, Cambridge, UK) which is based on median-effect principle by Chou and Talalay [62]. […] The IC50 value is calculated from the y-intercept (-m * log IC50), where m is the slope of the curve. […]\nThe MacSynergy II program (version 1.0, Ann Arbor, MI) calculates a theoretical additive value for each drug combination based on the values generated by the drugs alone using the Bliss Independence model [42]. […] A synergy volume is calculated by adding all of the positive values for each drug combination. […]\nIn our cell culture study, the score of synergy/antagonism was calculated from a set of 5 replicate parallel measurements and more than 3 sets of such experiments were conducted to test the reproducibility of the results. […]\nFractional inhibitory concentrations are calculated by dividing the EC50 of drug 1 with a fixed overlay of drug 2 by the EC50 of drug 1 alone (the x-coordinate)."}, "[1]": {"conditions": "in vivo; cited from earlier work"}, "HIV-1 RT": {"biological_target": "T1, HIV-1 RT (Human immunodeficiency virus type 1 group M subtype B, UniProt P04585)", "T1 construct": "Wild-type HIV-1 RT p66/p51 heterodimers; 6-His (N); made in house", "test": "HIV-1 RT enzymatic (combination) inhibition assay, steady state, activated calf thymus DNA", "assay_type": "biochemical"}, "[2]": {"conditions": "human, in vivo; cited from earlier work"}, "[3]": {"biological_target": "T2, HIV-1 RT and ddNTP-terminated DNA primer/template (Human immunodeficiency virus type 1 group M subtype B, UniProt P04585)", "T2 construct": "Wild-type HIV-1 RT p66/p51 heterodimers; 6-His (N); made in house", "test": "DEC formation assay (gel shift)", "assay_type": "binding", "source_text": "The dead-end complex (DEC) refers to a salt-stable complex formed by HIV-1 RT/ddNMP-terminated DNA primer-template bound to the next dNTP (or ddNTP) that is resistant to being competed apart with excess template. When DEC forms, HIV-1 RT and the DNA primer-template are \"trapped\" in a state where the forward reaction (polymerization), backward reaction (terminal ddNMP-excision), or enzyme-DNA dissociation cannot occur. We investigated the DEC formation using TFV-terminated DNA/RT/FTC-TP and FTC-MP-terminated DNA/RT/TFV-DP to test the hypothesis that the incoming NRTI might act as the next nucleotide to the chain-terminated primer and form a DEC, thus stabilizing the pre-existing chain-termination. […] For these studies, formation of DEC was determined by three kinetic constants including the dissociation constant (Kd), the maximum percentage of DNA primer-template forming a tight binding RT-DNA complex (Bmax), and the ratio of Bmax/Kd which reflects the efficiency of DEC formation. Furthermore, two sets of DNA primer/templates ([…] and D26/D50) were used to address whether the observation was sequence-dependent.\nDNA primers D19, D25, and D26 were 5'-end labeled with T4 polynucleotide kinase (New England Biolabs, Ipswich, MA) and [γ-^32P]ATP as previously described. […] The annealed primer/templates were analyzed by non-denaturing polyacrylamide gel (4–20% TBE) electrophoresis to ensure that the proper annealing had taken place.\nThe ability of HIV-1 RT to form a stable complex with NRTI-terminated primer/template in the presence of dNTP, ddNTP or NNRTI was assessed as previously described with modification. Two sets of primer/templates were tested using D19/D36A (D19/D36C) and D25/D50 (D26/D50). Labeled primer/template was chain-terminated by incubating a mixture containing 50 mM Tris-HCl (pH 7.8), 60 mM KCl, 5 mM MgCl2, 5 mM DTT, 300 μg/mL bovine serum albumin, 4.2 (v/v) % glycerol, 5 nM [5'-^32P]-labeled primer/template, 0.5 μM of ddATP or TFV-DP (for D19/D36A or D25/D50) or 0.5 μM of ddCTP or FTC-TP (for D19/D36C or D26/D50), and 200 nM HIV-1 RT for 5 min at 37°C and then placed on ice. […] Free dNTP, ddNTP, or EFV was added into the mixture and the mixture was incubated for 15 min at 25°C. At the end of the incubation, the mixture was placed on ice and mixed with 100 mM KCl and 1 A260 unit/mL (for D19/D36A and D19/D36C) or 5 A260 unit/mL (for D25/D50 and D26/D50) poly(rA).poly(dT)12–18. […] The gel was exposed to a storage phosphor screen and DEC formation was quantified using GE Storm 820 PhosphorImager and ImageQuant TL software (GE Healthcare, Piscataway, NJ).\nThe DEC formation was analyzed by plotting the fraction of the primer/template detected as a function of dNTP, ddNTP, or EFV concentration. […] Data were fitted by nonlinear regression to simple ligand binding equation: y = (Bmax × [ligand])/(Kd + [ligand]) using SigmaPlot 9.0 (Systat Software, Inc., San Jose, CA), where the ligand is the free dNTP, ddNTP, or EFV concentration, and y corresponds to the % of primer/template in DEC complex. The kinetic constants Kd represents the apparent dissociation constant of a ligand and Bmax is the maximum % of DEC complex formation."}, "[4]": {"biological_target": "T2, HIV-1 RT and ddNTP-terminated DNA primer/template", "design": "method as in PMID 9153415, PMID 17517852", "conditions": "TFV-terminated DNA+RT ref 51,55; read-out: Kd, reported values for DEC of TFV-terminated DNA+RT+dCTP; cited from earlier work"}, "[5]": {"conditions": "[α-32P]-dATP incorporation as marker"}, "[6]": {"conditions": "[α-32P]-dCTP incorporation as marker"}, "[7]": {"conditions": "TFV-terminated DNA 26/50-mer + HIV-1 RT, example experiment of Fig. 5"}, "[8]": {"conditions": "TFV-terminated DNA 26/50-mer + HIV-1 RT, example experiment of Fig. 5, read-out: Kd (curve fit of Fig. 5)"}, "[9]": {"conditions": "ligand added to TFV-terminated DNA D20/D36 + HIV-1 RT"}, "[10]": {"conditions": "ligand added to TFV-terminated DNA D20/D36 + HIV-1 RT, read-out: Kd"}, "[11]": {"conditions": "ligand added to TFV-terminated DNA D26/D50 + HIV-1 RT"}, "[12]": {"conditions": "ligand added to ddAMP-terminated DNA D20/D36 + HIV-1 RT"}, "[13]": {"conditions": "ligand added to ddAMP-terminated DNA D20/D36 + HIV-1 RT, read-out: Kd"}, "[14]": {"conditions": "ligand added to ddAMP-terminated DNA D26/D50 + HIV-1 RT"}, "[15]": {"conditions": "ligand added to ddCMP-terminated DNA D20/D36 + HIV-1 RT"}, "[16]": {"conditions": "ligand added to ddCMP-terminated DNA D27/D50 + HIV-1 RT"}}, "note": "Several values for one entry are separate records, joined by “and”; a condition that tells them apart may be missing. Equal values may be shown once. Read-outs that look alike come from different tables or passages of the source.", "data": [{"smiles": "O=C1Nc2ccc(Cl)cc2[C@@](C#CC2CC2)(C(F)(F)F)O1", "note": "[EFV, efavirenz]", "values": [{"measurement": "EC50", "setting": "HIV-1 strain xxLAI", "value": 0.0056, "unit": "µM"}, {"measurement": "steady-state plasma EFV concentration", "setting": "[1]", "value": 5, "unit": "µM"}]}, {"smiles": "Nc1nc(=O)n([C@@H]2CS[C@H](CO)O2)cc1F", "note": "[FTC, emtricitabine]", "values": [{"measurement": "EC50", "setting": "HIV-1 strain xxLAI", "value": 1.3, "unit": "µM"}]}, {"smiles": "Nc1nc(=O)n([C@@H]2CS[C@H](COP(=O)(O)OP(=O)(O)OP(=O)(O)O)O2)cc1F", "note": "[FTC-TP, FTC triphosphate]", "values": [{"measurement": "IC50", "setting": "HIV-1 RT; [5]", "value": "5 ± 3.2", "unit": "µM"}, {"measurement": "IC50", "setting": "HIV-1 RT; [6]", "value": "2.4 ± 0.8", "unit": "µM"}, {"measurement": "concentration in patients' peripheral blood mononuclear cells (PBMC)", "setting": "[2]", "value": 5000, "unit": "nM"}, {"measurement": "Bmax (curve fit of Fig. 5)", "setting": "[3]; [7]", "value": "50.4 ± 1.1", "unit": "%"}, {"measurement": "Kd", "setting": "[3]; [8]", "value": "52.6 ± 3.4", "unit": "µM"}, {"measurement": "fold more efficient DEC formation than dCTP", "setting": "[3]; TFV-terminated DNA+RT, two sequence contexts: equal to dCTP in one, this fold in the other", "value": "3.9 fold and 4 fold"}, {"measurement": "fold less efficient DEC formation than with dCTP", "setting": "[3]; ddAMP-terminated DNA+RT", "value": 10, "unit": "fold"}, {"measurement": "Bmax", "setting": "[3]; [9]", "value": "17.7 ± 3.9", "unit": "%"}, {"measurement": "Kd", "setting": "[3]; [10]", "value": "250 ± 11", "unit": "µM"}, {"measurement": "Bmax", "setting": "[3]; [11]", "value": "50.0 ± 5.0", "unit": "%"}, {"measurement": "Bmax", "setting": "[3]; [12]", "value": "28.1 ± 4.7", "unit": "%"}, {"measurement": "Kd", "setting": "[3]; [13]", "value": "171 ± 28", "unit": "µM"}, {"measurement": "Bmax", "setting": "[3]; [14]", "value": "60.2 ± 7.2", "unit": "%"}]}, {"smiles": "C[C@H](Cn1cnc2c(N)ncnc21)OCP(=O)(O)O", "note": "[TFV, tenofovir]", "values": [{"measurement": "EC50", "setting": "HIV-1 strain xxLAI", "value": 13, "unit": "µM"}]}, {"smiles": "C[C@@H](Cn1cnc2c(N)ncnc21)OCP(=O)(O)OP(=O)(O)OP(=O)(O)O", "note": "[TFV-DP, TFV diphosphate]", "values": [{"measurement": "IC50", "setting": "HIV-1 RT; [5]", "value": "0.53 ± 0.08", "unit": "µM"}, {"measurement": "IC50", "setting": "HIV-1 RT; [6]", "value": "0.82 ± 0.23", "unit": "µM"}, {"measurement": "concentration in patients' peripheral blood mononuclear cells (PBMC)", "setting": "[2]", "value": 500, "unit": "nM"}, {"measurement": "Bmax", "setting": "[3]; [15]", "value": "15.3 ± 2.7", "unit": "%"}, {"measurement": "Bmax", "setting": "[3]; [16]", "value": "55 ± 2", "unit": "%"}]}, {"smiles": "Nc1ncnc2c1ncn2[C@H]1C[C@H](O)[C@@H](COP(=O)(O)OP(=O)(O)OP(=O)(O)O)O1", "note": "[dATP]", "values": [{"measurement": "fold more efficient DEC formation than TFV-DP", "setting": "[3]; ddCMP-terminated DNAs", "value": "24- to 65 fold"}, {"measurement": "Bmax", "setting": "[3]; ligand added to FTC-MP-terminated DNA D27/D50 + HIV-1 RT, ND = No DEC formation detected at 2 mM", "value": "45 ± 14", "unit": "%"}, {"measurement": "Kd", "setting": "[3]; ligand added to FTC-MP-terminated DNA D27/D50 + HIV-1 RT, ND = No DEC formation detected at 2 mM, read-out: Kd", "value": "862 ± 229", "unit": "µM"}, {"measurement": "Bmax", "setting": "[3]; [15]", "value": "38.0 ± 4.4", "unit": "%"}, {"measurement": "Bmax", "setting": "[3]; [16]", "value": "60 ± 3", "unit": "%"}]}, {"smiles": "Nc1ccn([C@H]2C[C@H](O)[C@@H](COP(=O)(O)OP(=O)(O)OP(=O)(O)O)O2)c(=O)n1", "note": "[dCTP]", "values": [{"measurement": "Kd", "setting": "[4]", "value": "1 to 5", "unit": "µM"}, {"measurement": "Bmax (curve fit of Fig. 5)", "setting": "[3]; [7]", "value": "49.2 ± 2.7", "unit": "%"}, {"measurement": "Kd", "setting": "[3]; [8]", "value": "185 ± 28", "unit": "µM"}, {"measurement": "Bmax", "setting": "[3]; [9]", "value": "18.5 ± 6.7", "unit": "%"}, {"measurement": "Kd", "setting": "[3]; [10]", "value": "232 ± 12", "unit": "µM"}, {"measurement": "Bmax", "setting": "[3]; [11]", "value": "50.0 ± 5.5", "unit": "%"}, {"measurement": "Bmax", "setting": "[3]; [12]", "value": "34.2 ± 4.6", "unit": "%"}, {"measurement": "Kd", "setting": "[3]; [13]", "value": "21.5 ± 9.8", "unit": "µM"}, {"measurement": "Bmax", "setting": "[3]; [14]", "value": "55.8 ± 3.4", "unit": "%"}]}]}
